The results in this text go back to patent US20060234987A1, “Neuroprotective benzo 1 3 oxathiol 2 ones” (priority 2003, published 2006).

As a reminder, the IC50 is the concentration that inhibits the measured activity by half.

For the first assay, the system named is SCG neurons. Briefly: Protection of SCG neurons from anti-NGF killing. The conditions noted are these: Rattus norvegicus, Neuron, 48 h, read-out: IC50, rescue from anti-NGF killing of cultured SCG neurons. Type of assay: cell-based, Sprague Dawley rats. As for the experimental part: Neurotrophins are critical to the growth, development, and survival of small fiber neurons of the PNS. SCG neurons are neurons of the PNS that undergo apoptosis upon NGF withdrawal. In a typical experiment SCG neurons are cultured in the presence of NGF, which induces survival and neurite out-growth. After 5 days the NGF is removed by either the addition of anti-NGF polyclonal antibody (Sigma) or by repeated washings (4 times) with NGF free media, resulting in the apoptosis of up to 90% of the neurons after 48 hours, as measured by MTS staining. The addition of selected compounds of Formula I to the final cellular media provides upwards of 100% protection, at drug concentrations ranging from 10 to 50 μM (see Example 62).
Protection of SCG neurons from anti-NGF killing. SCG neurons were isolated from day 1 neonatal Sprague Dawley rats, plated at a cell density of 5,000 cells/well, and incubated in Biowhittaker Ultraculture containing 1% Penstrep, 1% L-glutamine, 0.7% ARAC, 3% rat serum, and NGF (50 ng/mL, Calomone Labs), at 37° C., under a 5% CO2 atmosphere. After 4 days the cells were treated with anti-NGF antibody (Sigma). At this time compound was added and the cells were maintained serum and NGF free for 48 hours, at which time viability of the neurons was assessed using Alamar Blue (Medicorp) staining. Table 3 summarizes selected IC50 values from compounds tested using this protocol.
For `Cc1cc(OC(=O)NC2CCCCC2)cc2sc(=O)oc12` [Compound 31, 5-(N-Cyclohexylcarbamoyloxy)-7-methylbenzo[1,3]oxathiol-2-one], the IC50 was found to be 35 µM.

Staying with this assay, now noted: Rattus norvegicus, Neuron; anti-NGF antibody, 48 hours, Alamar Blue viability; read-out: IC50, rescue from anti-NGF killing of cultured SCG neurons.
With `CCSc1cc(O)cc2sc(=O)oc12` [Compound 5, 7-Ethylsulfanyl-5-hydroxybenzo[1,3]oxathiol-2-one], the IC50 is greater than 30 µM. Turning to `CCc1ccccc1Sc1cc(O)cc2sc(=O)oc12` [Compound 12, 7-((2-Ethylphenyl)sulfanyl)-5-hydroxybenzo[1,3]oxathiol-2-one], the IC50 was greater than 30 µM. Same read-out and setting: the result for `Cc1cccc(C)c1Sc1cc(O)cc2sc(=O)oc12` [Compound 13, 7-((2,6-Dimethylphenyl)sulfanyl)-5-hydroxybenzo[1,3]oxathiol-2-one] reads greater than 30 µM; that for `CC(C)c1ccccc1Sc1cc(O)cc2sc(=O)oc12` [Compound 14, 5-hydroxy-7-((2-iso-Propylphenyl)sulfanyl)benzo[1,3]oxathiol-2-one], 30 µM; that for `CC(C)(C)c1ccc(Sc2cc(O)cc3sc(=O)oc23)cc1` [Compound 17, 7-((4-tert-Butylphenyl)sulfanyl)-5-hydroxybenzo[1,3]oxathiol-2-one], 25 µM.

For the molecule `O=c1oc2c(Sc3ccccc3C(F)(F)F)cc(O)cc2s1` [Compound 18, 5-hydroxy-7-((2-Trifluoromethylphenyl)sulfanyl)benzo[1,3]oxathiol-2-one], the IC50 was greater than 30 µM. Same read-out and setting: the result for `O=c1oc2ccc(O)c(Sc3nc4ccccc4s3)c2s1` [Compound 21, 4-((Benzothiazol-2-yl)sulfanyl)-5-hydroxybenzo[1,3]oxathiol-2-one] reads 50 µM. Same read-out and setting: the result for `O=c1oc2c([S+]([O-])c3ccc4ccccc4c3)cc(O)cc2s1` (stereo not shown) [Compound 24, 5-Hydroxy-7-((2-naphthyl)sulfinyl)benzo[1,3]oxathiol-2-one] reads greater than 30 µM; that for `O=c1oc2c(Sc3ccccc3)cc(O)c(Sc3ccc4ccccc4c3)c2s1` [Compound 29, 5-hydroxy-4-(2-naphthylthio)-7-((phenyl)sulfanyl)benzo[1,3]oxathiol-2-one], greater than 30 µM; that for `O=C(Oc1cc(-c2ccccc2)c2oc(=O)sc2c1)c1sc2ccccc2c1Cl` [Compound 33, 5-(3-chlorobenzothiophen-2-ylcarbonyloxy)-7-phenylbenzo[1,3]oxathiol-2-one], greater than 30 µM. On the same count and under the same terms, under `O=c1oc2c(-c3ccccc3Cl)cc(O)cc2s1` [Compound 36, 7-(2-chlorophenyl)-5-hydroxybenzo[1,3]oxathiol-2-one] stands 16 µM; under `O=c1oc2c(-c3cccc(Cl)c3)cc(O)cc2s1` [Compound 37, 7-(3-chlorophenyl)-5-hydroxybenzo[1,3]oxathiol-2-one], greater than 30 µM; under `O=c1oc2c(-c3ccc(Cl)cc3)cc(O)cc2s1` [Compound 39, 7-(4-chlorophenyl)-5-hydroxybenzo[1,3]oxathiol-2-one], 30 µM.

Still in this assay, the particulars now being: anti-NGF antibody, 48 hours, Alamar Blue viability; read-out: IC50, rescue from anti-NGF killing of cultured SCG neurons.
As to `O=c1oc2c([S+]([O-])Cc3ccccc3)cc(O)cc2s1` (stereo not shown) [Compound 6], the IC50 is greater than 30 µM.

The assay is the same for the next values; noted with them: at 10 μM compound.
Take `CC(C)c1ccccc1Sc1cc2oc(=O)sc2cc1O` [Compound 15, 5-hydroxy-6-((2-iso-Propylphenyl)sulfanyl)benzo[1,3]oxathiol-2-one]: the “rescue from anti-NGF killing, % at 10 μM” value came to 40% at 10 μM.

Still in this assay, the particulars now being: at 30 μM compound.
With `CC(C)c1ccc(Sc2cc(O)cc3sc(=O)oc23)cc1` [Compound 16, 7-(4-iso-Propylphenylthio)-5-hydroxybenzo[1,3]oxathiol-2-one], the “rescue from anti-NGF killing, % at 30 μM” value is recorded as 42% at 30 μM. With `O=c1oc2c(-c3ccc(F)cc3)cc(O)cc2s1` [Compound 35, 7-(4-fluorophenyl)-5-hydroxybenzo[1,3]oxathiol-2-one], the “rescue from anti-NGF killing, % at 30 μM” value came out at 40% at 30 μM.

The assay is the same for the next values; noted with them: at 50 μM compound.
For `O=C(Oc1cc(-c2cccc(Cl)c2)c2oc(=O)sc2c1)c1ccccc1Cl` [Compound 38, 5-(2-chlorophenylcarbonyloxy)-7-(3-chlorophenyl)benzo[1,3]oxathiol-2-one], the “rescue from anti-NGF killing, % at 50 μM” value came to 40% at 50 μM.
